From patent US20160280651A1, “COMPOUNDS THAT INDUCE ABA RESPONSES” (THE REGENTS OF THE UNIVERSITY OF CALIFORNIA, priority 2013, published 2016)
pIC50: −log10 of the molar value.

Legend:
[1] = test system: MAPKKK18 promoter::GUS reporter; test: MAPKKK18 promoter::GUS ABA-responsive reporter gene assay; format: in vivo, Arabidopsis; conditions: guard cells, vascular tissues of leaves and roots, radicle tips of imbibed seeds
Experimental: Existing ABA-responsive promoter-GUS fusions are, in our experience, not ideal due to either high background levels or relatively low induction levels in response to ABA. […] We therefore characterized the effects of agonists on MAPKKK18 promoter::GUS reporter transgenic plants. GUS staining was performed in a reaction buffer of the following composition: 50 mM sodium phosphate buffer pH 7.0, 0.05% Tween-20, 2.5 mM potassium ferrocyanide, 2.5 mM potassium ferricyanide, 1 mM X-gluc. The reaction buffer was vacuum infiltrated into test samples for 10 min two times and then incubated at 37° C. for 5 h. The reaction was stopped by washing the samples with 70% ethanol, and chlorophyll pigments bleached by incubation at 65° C.

[2] = test system: HAB1 with PYR/PYL receptors; test: Receptor-mediated PP2C inhibition assay with HAB1, Example 1; format: biochemical, Arabidopsis
Experimental: (§1) FIG. 2A-FIG. 2C. Novel ABA agonists inhibit PPC2 activity through multiple PYR/PYL. (A) Chemical structure of naturally occurring (+)-ABA and selected ABA agonists. (B) and (C) HAB1, ABU, and ABI2 PP2C enzyme activity based ABA-agonist assays for various receptors in the presence or absence of 10 μM each test chemical.
(§2) FIG. 3A-FIG. 3B. (A) Receptor-mediated dose-dependent inhibition of PP2C enzyme activity by ABA agonists and analogs. (B) Observed compound IC50 values in enzymatic HAB1 PP2C-based ABA-agonist assays.
(§3) FIG. 4A-FIG. 4B. Quinabactin activates multiple ABA receptors. (A) Chemical structures of ABA, pyrabactin and quinabactin. (B) Chemical-dependent inhibition of HAB1 by ABA receptors. IC50 values (nM) were determined as described in the methods using 50 nM HAB1, 50 nM and multiple concentrations of compounds; full dose response curves are provided as in FIG. 3. (nd) correspond to receptors that were not produced as active proteins. The phylogenetic tree is a Neighbor-Joining tree made using the JTT distance matrix in MEGA5 (Tamura K, et al. (2011) MEGA5: Molecular Evolutionary Genetics Analysis Using Maximum Likelihood, Evolutionary Distance, and Maximum Parsimony Methods. Molecular Biology and Evolution 28(10):2731-2739).
(§4) HAB1 and PYL proteins were expressed and purified as described previously (Park S Y, et al. (2009) Abscisic Acid Inhibits Type 2C Protein Phosphatases via the PYR/PYL Family of START Proteins. Science 324(5930):1068-1071), with minor modifications. To obtain GST-HAB1, -ABI1 and -ABI2 fusion proteins, the HAB1 cDNA was cloned into pGex-2T whereas ABI1 and ABI2 cDNAs were cloned into the vector pGex-4T-1. Expression was conducted in BL21[DE3]pLysS host cells. Transformed cells were pre-cultured overnight, transferred to LB medium and cultured at 30° C. to culture A600 of ˜0.5. The culture was then cooled on ice and MnCl2 added to 4 mM and IPTG added to 0.3 mM. After 16 hours incubation at 15° C., cells were harvested and recombinant proteins were purified on glutathione agarose as described previously (Park S Y, et al. (2009). To obtain 6×His-PYL receptor fusion proteins, receptor cDNAs for all 13 ABA receptors were cloned into the vector pET28 and expressed and purified as described previously (Mosquna A, et al. (2011) Potent and selective activation of abscisic acid receptors in vivo by mutational stabilization of their agonist-bound conformation. PNAS 108(51):20838-20843); this yielded soluble and functional protein (assessed using receptor-mediated PP2C inhibition assays) for all receptors except PYL7, PYL11 and PYL12. These three receptors were therefore alternatively expressed as maltose binding (MBP) fusion proteins using the vector pMAL-c; expression of these constructs was carried out in BL21 [DE3]pLysS host strain with the same induction conditions used for GST-HAB1. Recombinant MBP-PYL fusion proteins were purified from sonicated and cleared lysate using amylose resin (New England Biolab, Inc.) using the manufacturers purification instructions. This effort yielded an active MBP-PYL11 fusion protein, but failed for PYL7 and PYL12.
(§5) PP2C activity assays using recombinant receptors and PP2Cs were carried out as follows: Purified proteins were pre-incubated in 80 μl assay buffer containing 10 mM MnCl2, 3 μg bovine serum albumin and 0.1% 2-mercaptoethanol with ABA or ABA agonist for 30 minutes at 22° C. Reactions were started by adding 20 μL of a reaction solution containing 156 mM Tris-OAc, pH 7.9, 330 mM KOAc and 5 mM 4-methylumbelliferyl phosphate after which fluorescence measurements were immediately collected using an excitation filter 355 nm and an emission filter 460 nm on a Wallac plate reader. Reactions contained 50 nM PP2C and 100 nM PYR/PYL proteins, respectively.

[3] = target: T1, HAB1 with PYR/PYL receptors (Arabidopsis thaliana, UniProt Q9FLB1); test: as above; format: biochemical; conditions: PYL5
T1 construct: 6xHis (N); made in house; host or cells: E. coli BL21[DE3]pLysS
T1 sequence (Q9FLB1 1-203): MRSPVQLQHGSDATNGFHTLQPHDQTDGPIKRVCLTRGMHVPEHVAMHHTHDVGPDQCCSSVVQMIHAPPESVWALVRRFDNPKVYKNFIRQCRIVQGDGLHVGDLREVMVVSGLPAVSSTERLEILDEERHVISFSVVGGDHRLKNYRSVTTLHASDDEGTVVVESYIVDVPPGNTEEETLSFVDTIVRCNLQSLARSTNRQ
T1 sequence (Q9CAJ0 1-511 partner): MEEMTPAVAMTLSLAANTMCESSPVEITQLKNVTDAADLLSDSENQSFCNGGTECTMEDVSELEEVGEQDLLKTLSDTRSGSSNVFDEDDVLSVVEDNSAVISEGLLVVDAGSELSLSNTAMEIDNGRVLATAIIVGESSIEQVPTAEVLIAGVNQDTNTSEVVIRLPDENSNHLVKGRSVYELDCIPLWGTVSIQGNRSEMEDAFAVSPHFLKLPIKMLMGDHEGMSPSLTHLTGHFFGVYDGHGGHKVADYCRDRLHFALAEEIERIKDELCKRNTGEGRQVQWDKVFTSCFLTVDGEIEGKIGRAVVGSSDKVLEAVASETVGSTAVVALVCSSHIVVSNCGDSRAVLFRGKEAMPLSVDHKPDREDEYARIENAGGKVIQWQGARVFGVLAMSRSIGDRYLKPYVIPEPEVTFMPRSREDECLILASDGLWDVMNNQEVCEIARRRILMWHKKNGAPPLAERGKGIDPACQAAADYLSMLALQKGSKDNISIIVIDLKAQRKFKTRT
Experimental: as §1, §2, §3, §4, §5

SMILES | Tissue pattern of reporter gene expression [1] | PP2C inhibition of HAB1 ([2]; 10 μM, receptors PYR1, PYL1, PYL2, PYL3 and PYL5) [%] | IC50 values of receptor activation ([2]; PYR1, PYLs 1-3 and PYL5) | Agonist strength compared with ABA ([2]; PYR1 or PYL1) | Maximal PP2C inhibition compared with pyrabactin ([2]; all receptors tested) | PP2C inhibition at saturation [3] [%] | pIC50 ([3]; read-out: IC50 of PYL5 activation)
CCCN1C(=O)CCc2cc(NS(=O)(=O)Cc3ccc(C)cc3)ccc21 [LC66C6] | induces expression of reporter genes in the same tissues as (+)-ABA | > 70 | submicromolar | stronger PYR1 or PYL1 agonist than ABA | higher than that observed with pyrabactin with all receptors tested |  | 
O=S(=O)(NCc1ccccn1)c1ccc(Br)c2ccccc12 [pyrabactin, reference compound] |  |  |  |  |  | ~40 | 6.05
